The source of these data is US20260285853A1, “COMPOUNDS AND METHODS FOR MODULATING SPLICING” (REMIX THERAPEUTICS INC., priority 2023, published 2026).

Common to all, as to type: cell-based
Assay [1] relates to HTT mRNA. Nature of the assay: Splicing RT-qPCR assay (THP), Table 2A. To be noted: Table 2A, THP; for AC50: HTT alternative junction (AJ) mRNA, read-out: HTT AJ (AC50, increase in alternative junction mRNA); for IC50: HTT canonical junction (CJ) mRNA, read-out: HTT CJ (IC50, decrease in canonical junction mRNA).
Assay [2] relates to MYB mRNA. Nature of the assay: Splicing RT-qPCR assay (THP), Table 2A. The following applies: Table 2A, THP; for AC50: MYB alternative junction (AJ) mRNA, read-out: MYB AJ (AC50, increase in alternative junction mRNA); for IC50: MYB canonical junction (CJ) mRNA, read-out: MYB CJ (IC50, decrease in canonical junction mRNA).
In assay [3] the test system is MYB mRNA. The assay can be described thus: Gene panel canonical junction qPCR assay, decrease in CJ mRNA, Table 3. The following applies: decrease in CJ mRNA levels, canonical junction qPCR, gene panel. The method, boiled down: (§1)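 Canonical exon-junction (CJ) transcript measured by 5′ nuclease RT-qPCR, normalized to GAPDH, GUSB or PPIA and to DMSO control (2^(−ΔΔCt)). A673 or K562 cells treated 24 h at 37° C with an 11-point 3-fold dilution series, top 10 uM, DMSO ≤0.25%. IC50 from 4-parameter logistic fit of percentage CJ decrease.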
(Quantitative PCR measures a nucleic acid by following its amplification.)

The test system of assay [4] is HTT mRNA. Described as above. To be noted: decrease in CJ mRNA levels, canonical junction qPCR, gene panel. The method, boiled down:
as §1

The test system of assay [5] is SH-SY5Y (human neuroblastoma) cells. The assay can be described thus: Cell viability, Cell Titer Glo 2.0 assay. To be noted: read-out: Viability SHSY5Y.3 GI50. The procedure, abridged:
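SH-SY5Y cells were exposed to serially diluted compounds in IMDM with 10% FBS and 0.1% DMSO for 72 hours at 37° C., 5% CO2. Viability was measured by CellTiter-Glo 2.0 luminescence, with medium-only wells as blank.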
Background: In ATP-based viability assays light output follows the ATP content of the culture.

With `CC(=O)NCc1cc(NC(=O)c2ccc(N3CCC(NC4CC4)CC3)c3cn(C)nc23)cc2cn(C)nc12` [Compound 779], the AC50 in assay [1] was greater than 10000 nM; in assay [2], 100 to 1000 nM. The IC50 is greater than 10000 nM in assay [1], 100 to 1000 nM in assay [2], 100 to 1000 nM in assay [3] and greater than 10000 nM in assay [4]. In addition, the GI50 in assay [5] is greater than 10000 nM.
As for `Cc1nc2c(C(=O)Nc3cc(F)c4nn(C)cc4c3)ccc(N3C[C@H](C)N[C@@H](C)C3)c2s1` [Compound 780], the results for the AC50 in assay [1] and in assay [2] were 100 to 1000 nM and less than 100 nM, respectively. Besides, the 50% inhibitory concentration (IC50) in assay [1] was 100 to 1000 nM; in assay [2], less than 100 nM; in assay [3] it was less than 100 nM; in assay [4], 100 to 1000 nM. For the same compound, the GI50 in assay [5] was less than 100 nM.
`Cc1cn2cc(NC(=O)c3ccc(N4CCC(NC5CC5)CC4)c4cn(C)nc34)nc2c(Cc2cnc(Cl)s2)n1` [Compound 781]: the AC50 in assay [1] and in assay [2] was greater than 10000 nM in each case. Besides, the IC50 in assay [1], in assay [2], in assay [3] and in assay [4] was greater than 10000 nM throughout. For the same compound, the GI50 in assay [5] lay in the range of 1000 to 10000 nM.
For `COc1nc2c(C(=O)Nc3cn4c(C)nc(C)cc4n3)ccc(N3C[C@H](C)N[C@@H](C)C3)c2s1` [Compound 782, N-(5,7-dimethylimidazo[1,2-c]pyrimidin-2-yl)-7-[(3S,5S)-3,5-dimethylpiperazin-1-yl]-2-methoxy-1,3-benzothiazole-4-carboxamide], the AC50 in assay [1] is greater than 10000 nM; in assay [2] it was 100 to 1000 nM. For the same compound, the IC50 in assay [1] was greater than 10000 nM; in assay [2], 100 to 1000 nM; in assay [3], 100 to 1000 nM; in assay [4] it was greater than 10000 nM. In assay [5], the GI50 fell in the range of 1000 to 10000 nM.
On to `COc1nc2c(C(=O)Nc3cc(CO)c4nn(C)cc4c3)ccc(N3C[C@H](C)N[C@@H](C)C3)c2s1` [Compound 783, 7-((3S,5S)-3,5-dimethylpiperazin-1-yl)-N-(7-(hydroxymethyl)-2-methyl-2H-indazol-5-yl)-2-methoxybenzo[d]thiazole-4-carboxamide], for which the AC50 in assay [1] was 1000 to 10000 nM; in assay [2], less than 100 nM. For the same compound, the IC50 in assay [1] is greater than 10000 nM; in assay [2], less than 100 nM; in assay [3] it was less than 100 nM; in assay [4] it was greater than 10000 nM. Further, the GI50 in assay [5] fell in the range of 100 to 1000 nM.
`COc1nc2c(C(=O)Nc3cc(OC)c4nn(C)cc4c3)ccc(N3C[C@H](C)N[C@@H](C)C3)c2s1` [Compound 784, 7-((3S,5S)-3,5-dimethylpiperazin-1-yl)-2-methoxy-N-(7-methoxy-2-methyl-2H-indazol-5-yl)benzo[d]thiazole-4-carboxamide]: the AC50 in assay [1] is 100 to 1000 nM; in assay [2], less than 100 nM. The half-maximal inhibitory concentration (IC50) is 100 to 1000 nM in assay [1], less than 100 nM in assay [2], less than 100 nM in assay [3] and 100 to 1000 nM in assay [4]. The GI50 in assay [5] was less than 100 nM.
Regarding `COc1nc2c(C(=O)Nc3cc(Cl)c4nn(C)cc4c3)ccc(N3C[C@H](C)N[C@@H](C)C3)c2s1` [Compound 785], the AC50 in assay [1] was 100 to 1000 nM; in assay [2] it was less than 100 nM. Besides, the IC50 in assay [1] was 100 to 1000 nM; in assay [2] it was less than 100 nM; in assay [3] it was less than 100 nM; in assay [4], 100 to 1000 nM. For the same compound, the GI50 in assay [5] was less than 100 nM.
Take `COc1nc2c(C(=O)Nc3cc4cn(C)nc4c(F)c3OC)ccc(N3C[C@H](C)N[C@@H](C)C3)c2s1` [Compound 786]: the AC50 in assay [1] lay within 1000 to 10000 nM; in assay [2], 100 to 1000 nM. In addition, the half-maximal inhibitory concentration (IC50) fell in the range of 1000 to 10000 nM in assay [1], 100 to 1000 nM in assay [2], 100 to 1000 nM in assay [3] and 1000 to 10000 nM in assay [4]. Besides, the GI50 in assay [5] was in the range of 1000 to 10000 nM.
For `COc1nc2c(C(=O)Nc3cc4cc(C)nn4cc3OC)ccc(N3C[C@H](C)N[C@@H](C)C3)c2s1` [Compound 787, 7-((3S,5S)-3,5-dimethylpiperazin-1-yl)-2-methoxy-N-(6-methoxy-2-methylpyrazolo[1,5-a]pyridin-5-yl)benzo[d]thiazole-4-carboxamide 2,2,2-trifluoroacetate], the AC50 in assay [1] and in assay [2] was greater than 10000 nM throughout. For the same compound, the half-maximal inhibitory concentration (IC50) in assay [1] is greater than 10000 nM; in assay [2], 1000 to 10000 nM; in assay [3], 1000 to 10000 nM; in assay [4] it was greater than 10000 nM. The GI50 in assay [5] was in the range of 1000 to 10000 nM.
In the case of `COc1nc2c(C(=O)Nc3cc(F)c4nn(C)cc4c3)ccc(N3C[C@@H](C)NC4(CC4)C3)c2s1` [Compound 788], the AC50 in assay [1] is greater than 10000 nM; in assay [2], less than 100 nM. Further, the half-inhibitory concentration (IC50) was greater than 10000 nM in assay [1], 100 to 1000 nM in assay [2], 100 to 1000 nM in assay [3] and greater than 10000 nM in assay [4]. For the same compound, the concentration for 50% growth inhibition (GI50) in assay [5] was 1000 to 10000 nM.
As for `COc1nc2c(C(=O)Nc3cc(F)c4nn(C)cc4c3)ccc(N3CCN(C)CC3)c2s1` [Compound 789], the AC50 is 100 to 1000 nM in assay [1] and less than 100 nM in assay [2]. Besides, the IC50 in assay [1] was 100 to 1000 nM; in assay [2] it was less than 100 nM; in assay [3] it was less than 100 nM; in assay [4] it was 100 to 1000 nM. Further, in assay [5], the GI50 is 100 to 1000 nM.
On to `COc1cc2c(N3C[C@H](C)N[C@@H](C)C3)ccc(C(=O)Nc3cc(F)c4nn(C)cc4c3)c2o1` [Compound 790], for which the AC50 in assay [1] was 100 to 1000 nM; in assay [2], less than 100 nM. Moreover, the 50% inhibitory concentration (IC50) in assay [1] was 1000 to 10000 nM; in assay [2], less than 100 nM; in assay [3], less than 100 nM; in assay [4] it was 1000 to 10000 nM. In addition, in assay [5], the concentration for 50% growth inhibition (GI50) lay in the range of 100 to 1000 nM.
`Cc1cn2cc(NC(=O)c3ccc(N4CCC(NC5CC5)CC4)c4cn(C)nc34)nc2c(CNC(C)C(F)(F)F)n1` (stereo not shown) [Compound 791, 4-[4-(cyclopropylamino)-1-piperidyl]-2-methyl-N-[6-methyl-8-[[(2,2,2-trifluoro-1-methyl-ethyl)amino]methyl]imidazo[1,2-a]pyrazin-2-yl]indazole-7-carboxamide]: the AC50 in assay [1] and in assay [2] was greater than 10000 nM throughout. For the same compound, the half-inhibitory concentration (IC50) in assay [1], in assay [2], in assay [3] and in assay [4] was greater than 10000 nM each time. Besides, the GI50 in assay [5] lay within 1000 to 10000 nM.
As for `Cc1cn2cc(NC(=O)c3ccc(N(C)C)c4cn(C)nc34)nc2c(CNS(C)(=O)=O)n1` [Compound 792], the AC50 in assay [1] and in assay [2] was 1000 to 10000 nM each time. In addition, the IC50 in assay [1], in assay [2], in assay [3] and in assay [4] was 1000 to 10000 nM in each case. Moreover, the GI50 in assay [5] fell in the range of 1000 to 10000 nM.
`Cn1cc2cc(NC(=O)c3ccc(N4CCC(NC5CC5)CC4)c4cn(C)nc34)cc(CO)c2n1` [Compound 793]: the AC50 in assay [1] is greater than 10000 nM; in assay [2], 1000 to 10000 nM. The IC50 was greater than 10000 nM in assay [1], 1000 to 10000 nM in assay [2], 1000 to 10000 nM in assay [3] and greater than 10000 nM in assay [4]. In addition, the GI50 in assay [5] was in the range of 1000 to 10000 nM.
As to `C=CCNC1CCN(c2ccc(C(=O)Nc3cc(CO)c4nn(C)cc4c3)c3nn(C)cc23)CC1` [Compound 794, 4-[4-(allylamino)-1-piperidyl]-N-[7-(hydroxymethyl)-2-methyl-indazol-5-yl]-2-methyl-indazole-7-carboxamide], the AC50 in assay [1] was greater than 10000 nM; in assay [2] it was 1000 to 10000 nM. In addition, the IC50 was greater than 10000 nM in assay [1], 100 to 1000 nM in assay [2], 100 to 1000 nM in assay [3] and greater than 10000 nM in assay [4]. In addition, in assay [5], the GI50 lay within 1000 to 10000 nM.
For the compound `Cc1cn2cc(NC(=O)c3ccc(N4CCC(NC5CC5)CC4)c4cn(C)nc34)nc2c(CN2CCCCS2(=O)=O)n1` [Compound 795], the AC50 in assay [1] and in assay [2] was greater than 10000 nM throughout. For the same compound, the IC50 in assay [1], in assay [2], in assay [3] and in assay [4] was greater than 10000 nM in each case. Further, the GI50 in assay [5] was 1000 to 10000 nM.
In the case of `C[C@H]1CN(c2ccc(C(=O)Nc3cc(F)c4nn(C)cc4c3)c3sc(OCc4ccnn4C)nc23)C[C@H](C)N1` [Compound 796, 4-[(3S,5S)-3,5-dimethylpiperazin-1-yl]-N-(7-fluoro-2-methyl-indazol-5-yl)-2-[(2-methylpyrazol-3-yl)methoxy]-1,3-benzothiazole-7-carboxamide], the AC50 in assay [1] and in assay [2] was greater than 10000 nM each time. The IC50 in assay [1], in assay [2], in assay [3] and in assay [4] was greater than 10000 nM each time. For the same compound, in assay [5], the GI50 lay in the range of 1000 to 10000 nM.
Regarding `C[C@H]1CN(c2ccc(C(=O)Nc3cc(F)c4nn(C)cc4c3)c3sc(OCC4CCNC4)nc23)C[C@H](C)N1` (stereo partly drawn) [Compound 797, 4-((3S,5S)-3,5-dimethylpiperazin-1-yl)-N-(7-fluoro-2-methyl-2H-indazol-5-yl)-2-(pyrrolidin-3-ylmethoxy)benzo[d]thiazole-7-carboxamide bis(2,2,2-trifluoroacetate)], the AC50 in assay [1] and in assay [2] was greater than 10000 nM in each case. In addition, the IC50 in assay [1], in assay [2], in assay [3] and in assay [4] was greater than 10000 nM in each case. For the same compound, in assay [5], the GI50 was greater than 10000 nM.

As usually defined, the AC50 is the midpoint of the concentration-response curve, whichever way the signal moves. What is called IC50 is the midpoint of a concentration-inhibition curve. By GI50 is commonly meant the concentration giving 50% growth inhibition.
